Laboratory results reported in PubChem BioAssay (NCI).
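Cells were grown in 96-well plates and exposed to each compound for 48 hours at five concentrations; endpoints were interpolated linearly between bracketing concentrations, or set to the highest concentration if not reached. TGI marks complete inhibition of growth.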

Tests used:
Assay in all cases: NCI anticancer screen, dose series, 48 h
CAKI-1 renal = test system: CAKI-1 renal
NCI-H226 lung = test system: NCI-H226 lung
EKVX NSCLC = test system: EKVX NSCLC
SK-OV-3 ovarian = test system: SK-OV-3 ovarian
HT29 colon = test system: HT29 colon
MOLT-4 leukemia = test system: MOLT-4 leukemia
UACC-257 melanoma = test system: UACC-257 melanoma
SK-MEL-5 melanoma = test system: SK-MEL-5 melanoma
HOP-62 NSCLC = test system: HOP-62 NSCLC
HL-60(TB) leukemia = test system: HL-60(TB) leukemia
OVCAR-4 ovarian = test system: OVCAR-4 ovarian
HS 578T breast = test system: HS 578T breast
TK-10 renal = test system: TK-10 renal
MDA-MB-231 breast = test system: MDA-MB-231 breast
IGROV1 ovarian = test system: IGROV1 ovarian
HCC-2998 colon = test system: HCC-2998 colon
T-47D breast = test system: T-47D breast
MCF7 breast = test system: MCF7 breast
CCRF-CEM leukemia = test system: CCRF-CEM leukemia
UACC-62 melanoma = test system: UACC-62 melanoma
SF-295 CNS = test system: SF-295 CNS
OVCAR-8 ovarian = test system: OVCAR-8 ovarian
A498 renal = test system: A498 renal
K-562 leukemia = test system: K-562 leukemia
U251 CNS = test system: U251 CNS
NCI/ADR-RES ovarian = test system: NCI/ADR-RES ovarian
DU-145 prostate = test system: DU-145 prostate
MDA-N = test system: MDA-N
UO-31 renal = test system: UO-31 renal
SK-MEL-28 melanoma = test system: SK-MEL-28 melanoma
SR leukemia = test system: SR leukemia
HOP-92 NSCLC = test system: HOP-92 NSCLC
NCI-H23 lung = test system: NCI-H23 lung
SN12C renal = test system: SN12C renal
HCT-116 colon = test system: HCT-116 colon
A549 NSCLC = test system: A549 NSCLC
SNB-19 CNS = test system: SNB-19 CNS
OVCAR-5 ovarian = test system: OVCAR-5 ovarian
RPMI-8226 leukemia = test system: RPMI-8226 leukemia
MALME-3M melanoma = test system: MALME-3M melanoma
ACHN renal = test system: ACHN renal
MDA-MB-435 = test system: MDA-MB-435
SF-268 CNS = test system: SF-268 CNS
M14 melanoma = test system: M14 melanoma
SF-539 CNS = test system: SF-539 CNS
KM12 colon = test system: KM12 colon
HCT-15 colon = test system: HCT-15 colon
COLO 205 colon = test system: COLO 205 colon
OVCAR-3 ovarian = test system: OVCAR-3 ovarian
LOX IMVI melanoma = test system: LOX IMVI melanoma
SNB-75 CNS = test system: SNB-75 CNS
786-0 renal = test system: 786-0 renal
NCI-H460 lung = test system: NCI-H460 lung
SW-620 colon = test system: SW-620 colon
PC-3 prostate = test system: PC-3 prostate
RXF 393 renal = test system: RXF 393 renal
NCI-H522 lung = test system: NCI-H522 lung
BT-549 breast = test system: BT-549 breast
SK-MEL-2 melanoma = test system: SK-MEL-2 melanoma

N#Cc1c(O)c(C=Nc2ccc(Cl)cc2)c(=O)n2c1[nH]c1ccccc12
TGI (CAKI-1 renal): > 100 µM
TGI (NCI-H226 lung): > 100 µM
TGI (EKVX NSCLC): > 100 µM
TGI (SK-OV-3 ovarian): > 100 µM
TGI (HT29 colon): > 100 µM
TGI (MOLT-4 leukemia): > 100 µM
TGI (UACC-257 melanoma): > 100 µM
TGI (SK-MEL-5 melanoma): > 100 µM
TGI (HOP-62 NSCLC): > 100 µM
TGI (HL-60(TB) leukemia): > 100 µM
TGI (OVCAR-4 ovarian): > 100 µM
TGI (HS 578T breast): > 100 µM
TGI (TK-10 renal): > 100 µM
TGI (MDA-MB-231 breast): > 100 µM
TGI (IGROV1 ovarian): > 100 µM
TGI (HCC-2998 colon): > 100 µM
TGI (T-47D breast): > 100 µM
TGI (MCF7 breast): > 100 µM
TGI (CCRF-CEM leukemia): > 100 µM
TGI (UACC-62 melanoma): > 100 µM
TGI (SF-295 CNS): > 100 µM
TGI (OVCAR-8 ovarian): > 100 µM
TGI (A498 renal): > 100 µM
TGI (K-562 leukemia): > 100 µM
TGI (U251 CNS): > 100 µM
TGI (NCI/ADR-RES ovarian): > 100 µM
TGI (DU-145 prostate): > 100 µM
TGI (MDA-N): > 100 µM
TGI (UO-31 renal): > 100 µM
TGI (SK-MEL-28 melanoma): > 100 µM
TGI (SR leukemia): > 100 µM
TGI (HOP-92 NSCLC): > 100 µM
TGI (NCI-H23 lung): > 100 µM
TGI (SN12C renal): > 100 µM
TGI (HCT-116 colon): > 100 µM
TGI (A549 NSCLC): > 100 µM
TGI (SNB-19 CNS): > 100 µM
TGI (OVCAR-5 ovarian): > 100 µM
TGI (RPMI-8226 leukemia): > 100 µM
TGI (MALME-3M melanoma): > 100 µM
TGI (ACHN renal): > 100 µM
TGI (MDA-MB-435): > 100 µM
TGI (SF-268 CNS): > 100 µM
TGI (M14 melanoma): > 100 µM
TGI (SF-539 CNS): > 100 µM
TGI (KM12 colon): > 100 µM
TGI (HCT-15 colon): > 100 µM
TGI (COLO 205 colon): > 100 µM
TGI (OVCAR-3 ovarian): > 100 µM
TGI (LOX IMVI melanoma): > 100 µM
TGI (SNB-75 CNS): > 100 µM
TGI (786-0 renal): > 100 µM
TGI (NCI-H460 lung): > 100 µM
TGI (SW-620 colon): > 100 µM
TGI (PC-3 prostate): > 100 µM
TGI (RXF 393 renal): > 100 µM
TGI (NCI-H522 lung): > 100 µM
TGI (BT-549 breast): > 100 µM
TGI (SK-MEL-2 melanoma): > 100 µM

O=C1Nc2ccc(Br)cc2C1=Nc1ccc2c(c1)OCO2
TGI (CAKI-1 renal): 64.5 µM
TGI (NCI-H226 lung): 60.8 µM
TGI (EKVX NSCLC): 74.8 µM
TGI (SK-OV-3 ovarian): > 100 µM
TGI (HT29 colon): 39.1 µM
TGI (MOLT-4 leukemia): 50.2 µM
TGI (UACC-257 melanoma): 34.8 µM
TGI (SK-MEL-5 melanoma): 30 µM
TGI (HOP-62 NSCLC): 44.5 µM
TGI (HL-60(TB) leukemia): 43.6 µM
TGI (OVCAR-4 ovarian): 17.1 µM
TGI (HS 578T breast): 98.7 µM
TGI (TK-10 renal): 59.6 µM
TGI (MDA-MB-231 breast): 39.2 µM
TGI (IGROV1 ovarian): > 100 µM
TGI (HCC-2998 colon): 30 µM
TGI (T-47D breast): > 100 µM
TGI (MCF7 breast): 37 µM
TGI (CCRF-CEM leukemia): 55.3 µM
TGI (UACC-62 melanoma): 29.1 µM
TGI (SF-295 CNS): 78.7 µM
TGI (OVCAR-8 ovarian): > 100 µM
TGI (A498 renal): 97.3 µM
TGI (K-562 leukemia): 61.6 µM
TGI (U251 CNS): 25.3 µM
TGI (NCI/ADR-RES ovarian): 85.8 µM
TGI (DU-145 prostate): > 100 µM
TGI (MDA-N): 30.4 µM
TGI (UO-31 renal): 44.1 µM
TGI (SK-MEL-28 melanoma): > 100 µM
TGI (SR leukemia): 73.5 µM
TGI (HOP-92 NSCLC): > 100 µM
TGI (NCI-H23 lung): > 100 µM
TGI (SN12C renal): 34.4 µM
TGI (HCT-116 colon): 33.6 µM
TGI (A549 NSCLC): > 100 µM
TGI (SNB-19 CNS): > 100 µM
TGI (OVCAR-5 ovarian): 51.9 µM
TGI (RPMI-8226 leukemia): 63.2 µM
TGI (MALME-3M melanoma): 35.6 µM
TGI (ACHN renal): 68.7 µM
TGI (MDA-MB-435): 22.4 µM
TGI (SF-268 CNS): > 100 µM
TGI (M14 melanoma): 40.6 µM
TGI (SF-539 CNS): 37.3 µM
TGI (KM12 colon): 44.5 µM
TGI (HCT-15 colon): 53.4 µM
TGI (COLO 205 colon): 31.9 µM
TGI (OVCAR-3 ovarian): 61.8 µM
TGI (LOX IMVI melanoma): 64.9 µM
TGI (SNB-75 CNS): 98.4 µM
TGI (786-0 renal): 48.2 µM
TGI (NCI-H460 lung): 67.9 µM
TGI (SW-620 colon): 74.1 µM
TGI (PC-3 prostate): 33.6 µM
TGI (RXF 393 renal): 38.9 µM
TGI (NCI-H522 lung): 43 µM
TGI (BT-549 breast): 50.5 µM
TGI (SK-MEL-2 melanoma): 35.3 µM

CC(=O)NCCC1CN(C(=O)/C=C\I)c2ccccc21 (configuration not stated)
TGI (CAKI-1 renal): 3.32 µM
TGI (NCI-H226 lung): 27.6 µM
TGI (EKVX NSCLC): 34 µM
TGI (SK-OV-3 ovarian): 34.9 µM
TGI (HT29 colon): 24 µM
TGI (MOLT-4 leukemia): 13.7 µM
TGI (UACC-257 melanoma): 26.7 µM
TGI (SK-MEL-5 melanoma): 16 µM
TGI (HOP-62 NSCLC): 23.3 µM
TGI (HL-60(TB) leukemia): 8.49 µM
TGI (OVCAR-4 ovarian): 39 µM
TGI (HS 578T breast): 67.6 µM
TGI (TK-10 renal): 19.5 µM
TGI (MDA-MB-231 breast): 8.14 µM
TGI (IGROV1 ovarian): 28.4 µM
TGI (HCC-2998 colon): 28.5 µM
TGI (T-47D breast): 37.6 µM
TGI (MCF7 breast): 13.4 µM
TGI (CCRF-CEM leukemia): 13.3 µM
TGI (UACC-62 melanoma): 28.3 µM
TGI (SF-295 CNS): 31.5 µM
TGI (OVCAR-8 ovarian): 35.8 µM
TGI (A498 renal): 41.7 µM
TGI (K-562 leukemia): > 40.3 µM
TGI (U251 CNS): 25.9 µM
TGI (NCI/ADR-RES ovarian): > 61.7 µM
TGI (DU-145 prostate): 33.1 µM
TGI (MDA-N): 26.3 µM
TGI (UO-31 renal): 18.8 µM
TGI (SK-MEL-28 melanoma): 31.6 µM
TGI (SR leukemia): > 65.9 µM
TGI (HOP-92 NSCLC): 46.3 µM
TGI (NCI-H23 lung): 35.2 µM
TGI (SN12C renal): 13.1 µM
TGI (HCT-116 colon): 28.8 µM
TGI (A549 NSCLC): 31.4 µM
TGI (SNB-19 CNS): 46.9 µM
TGI (OVCAR-5 ovarian): 30.2 µM
TGI (RPMI-8226 leukemia): 9.5 µM
TGI (MALME-3M melanoma): 28.5 µM
TGI (ACHN renal): 28.5 µM
TGI (MDA-MB-435): 30.8 µM
TGI (SF-268 CNS): 31.6 µM
TGI (M14 melanoma): 24 µM
TGI (SF-539 CNS): 17.8 µM
TGI (KM12 colon): 18.7 µM
TGI (HCT-15 colon): 22.1 µM
TGI (COLO 205 colon): 23.9 µM
TGI (OVCAR-3 ovarian): 28.2 µM
TGI (LOX IMVI melanoma): 11.1 µM
TGI (SNB-75 CNS): 33 µM
TGI (786-0 renal): 24.7 µM
TGI (NCI-H460 lung): 22.3 µM
TGI (SW-620 colon): 38.6 µM
TGI (PC-3 prostate): 24 µM
TGI (RXF 393 renal): 26.3 µM
TGI (NCI-H522 lung): 3.29 µM
TGI (BT-549 breast): 38.2 µM
TGI (SK-MEL-2 melanoma): 29.7 µM
